In this test the target is T1, human Npt2a (Homo sapiens, UniProt Q06495).
T1 construct: expressed in transfected cells
T1 sequence (Q06495 1-639): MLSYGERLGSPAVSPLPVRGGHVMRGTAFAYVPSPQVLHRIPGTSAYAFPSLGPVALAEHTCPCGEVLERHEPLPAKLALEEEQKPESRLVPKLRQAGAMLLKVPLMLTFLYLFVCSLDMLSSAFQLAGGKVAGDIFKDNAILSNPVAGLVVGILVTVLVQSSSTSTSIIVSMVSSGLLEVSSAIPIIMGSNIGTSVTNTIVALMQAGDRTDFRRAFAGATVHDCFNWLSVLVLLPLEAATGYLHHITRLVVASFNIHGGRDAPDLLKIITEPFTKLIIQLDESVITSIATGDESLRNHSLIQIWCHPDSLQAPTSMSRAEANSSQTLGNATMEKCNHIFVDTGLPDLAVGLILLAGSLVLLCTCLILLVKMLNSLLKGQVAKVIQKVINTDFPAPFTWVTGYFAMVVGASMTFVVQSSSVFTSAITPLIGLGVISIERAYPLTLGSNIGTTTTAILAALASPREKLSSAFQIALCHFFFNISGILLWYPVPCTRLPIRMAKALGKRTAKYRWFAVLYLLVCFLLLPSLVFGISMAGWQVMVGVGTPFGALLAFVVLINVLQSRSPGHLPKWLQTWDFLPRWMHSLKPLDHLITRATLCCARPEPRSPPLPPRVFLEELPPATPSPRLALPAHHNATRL
In words: Npt2a activity cell based assay, membrane potential dye, CHO T-REx hNpt2a cells. As to conditions: doxycycline-induced, depolarization by sodium phosphate influx, average or median values if tested more than once. The procedure, abridged: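 Cells were doxycycline-induced CHO T-REx hNpt2a, dye-loaded and pretreated 5 min at RT with 1 nM–50 μM compound in Na-free pH 7.4 buffer. IC50 was fit to the post/pre-trigger fluorescence ratio.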
One may read the IC50 as the concentration needed to halve the response being measured. Low values mean higher potency, high ones lower potency. Regarding `Cc1c(-c2ccc(F)cc2)nn(CC2CC2)c1Nc1cc(-n2cc3c(n2)CN(C(=O)OC(C)(C)C)C3)ncn1` [Example 433, tert-butyl 2-(6-{[1-(cyclopropylmethyl)-3-(4-fluorophenyl)-4-methyl-1H-pyrazol-5-yl]amino}pyrimidin-4-yl)-2,6-dihydropyrrolo[3,4-c]pyrazole-5(4H)-carboxylate], the IC50 is 1500 nM. In other words, the single-digit micromolar range.

Molecule `COc1c(C)nn(-c2cc(Nc3nn(C)c(-c4ccc(F)cc4)c3C)ncn2)c1C` [Example 434, N-[5-(4-fluorophenyl)-1,4-dimethyl-1H-pyrazol-3-yl]-6-(4-methoxy-3,5-dimethyl-1H-pyrazol-1-yl)pyrimidin-4-amine] showed an IC50 of 7 nM. This IC50 is about 210-fold lower than that of the molecule before.

`COc1c(C)nn(-c2cc(Nc3nn(C)c(-c4ccc(C#N)cc4)c3C)ncn2)c1C` [Example 435, 4-(3-{[6-(4-methoxy-3,5-dimethyl-1H-pyrazol-1-yl)pyrimidin-4-yl]amino}-1,4-dimethyl-1H-pyrazol-5-yl)benzonitrile] yielded an IC50 of 5 nM. This IC50 and that of the molecule before are within 1.5-fold of each other.

Take `COc1c(C)nn(-c2cc(Nc3c(C)c(-c4ccc(C#N)cc4)nn3C)ncn2)c1C` [Example 436, 4-(5-{[6-(4-methoxy-3,5-dimethyl-1H-pyrazol-1-yl)pyrimidin-4-yl]amino}-1,4-dimethyl-1H-pyrazol-3-yl)benzonitrile]: the IC50 is 10 nM.

`COc1c(C)nn(-c2cc(Nc3c(C)c(-c4ccc(F)cc4)nn3C)ncn2)c1C` [Example 437, N-[3-(4-fluorophenyl)-1,4-dimethyl-1H-pyrazol-5-yl]-6-(4-methoxy-3,5-dimethyl-1H-pyrazol-1-yl)pyrimidin-4-amine]: the IC50 was determined as 21 nM. This IC50 lies about 2.1-fold higher than the previous one.

As to `CCOC(=O)c1c(C)nn(-c2cc(Nc3c(C)c(-c4ccc(F)cn4)nn3CC3CC3)ncn2)c1C` [Example 438, ethyl 1-(6-{[1-(cyclopropylmethyl)-3-(5-fluoropyridin-2-yl)-4-methyl-1H-pyrazol-5-yl]amino}pyrimidin-4-yl)-3,5-dimethyl-1H-pyrazole-4-carboxylate], the IC50 turned out to be 16 nM. This IC50 and that of the molecule before are within 1.5-fold of each other.

On to `Cc1nn(-c2cc(Nc3c(C)c(-c4ccc(F)cn4)nn3CC3CC3)ncn2)c(C)c1Cl` [Example 439, 6-(4-chloro-3,5-dimethyl-1H-pyrazol-1-yl)-N-[1-(cyclopropylmethyl)-3-(5-fluoropyridin-2-yl)-4-methyl-1H-pyrazol-5-yl]pyrimidin-4-amine], for which it took 39 nM to reach half-maximal inhibition (IC50).

Molecule `CCc1c(Nc2cc(-n3nc(C)c(CC(=O)OC(C)C)c3C)ncn2)nn(C)c1-c1ccc(F)cc1` [Example 440, propan-2-yl [1-(6-{[4-ethyl-5-(4-fluorophenyl)-1-methyl-1H-pyrazol-3-yl]amino}pyrimidin-4-yl)-3,5-dimethyl-1H-pyrazol-4-yl]acetate] showed an IC50 of 97 nM.

For the molecule `Cc1cc(C)n(-c2cc(Nc3c(Cl)c(-c4ccc(C#N)cc4)nn3CC3CC3)ncn2)n1` [Example 441, 4-[4-chloro-1-(cyclopropylmethyl)-5-{[6-(3,5-dimethyl-1H-pyrazol-1-yl)pyrimidin-4-yl]amino}-1H-pyrazol-3-yl]benzonitrile], the half-maximal inhibitory concentration (IC50) amounted to 21 nM.

In the case of `CCOC(=O)c1c(C)nn(-c2cc(Nc3c(Cl)c(-c4ccc(C#N)cc4)nn3CC3CC3)ncn2)c1C` [Example 442, ethyl 1-(6-{[4-chloro-3-(4-cyanophenyl)-1-(cyclopropylmethyl)-1H-pyrazol-5-yl]amino}pyrimidin-4-yl)-3,5-dimethyl-1H-pyrazole-4-carboxylate], the IC50 was 8 nM. Against the preceding molecule, the IC50 is about 2.6-fold lower.

As to `COc1c(Nc2cc(-n3nc(C)cc3C)ncn2)nn(C)c1-c1ccc(C#N)cc1` [Example 443, 4-(3-{[6-(3,5-dimethyl-1H-pyrazol-1-yl)pyrimidin-4-yl]amino}-4-methoxy-1-methyl-1H-pyrazol-5-yl)benzonitrile], inhibition was half-maximal at 11 nM (IC50).

The molecule `COc1c(-c2ccc(C#N)cc2)nn(C)c1Nc1cc(-n2nc(C)cc2C)ncn1` [Example 444, 4-(5-{[6-(3,5-dimethyl-1H-pyrazol-1-yl)pyrimidin-4-yl]amino}-4-methoxy-1-methyl-1H-pyrazol-3-yl)benzonitrile] had an IC50 of 120 nM. This IC50 lies about 11-fold higher than the previous one.

Regarding `Cc1cc(C(F)F)n(-c2cc(Nc3c(Cl)c(-c4ccc(C#N)cc4)nn3CC3CC3)ncn2)n1` [Example 445, 4-[4-chloro-1-(cyclopropylmethyl)-5-({6-[5-(difluoromethyl)-3-methyl-1H-pyrazol-1-yl]pyrimidin-4-yl}amino)-1H-pyrazol-3-yl]benzonitrile], 12 nM corresponded to half-maximal inhibition (IC50).

In turn, `CCOC(=O)c1c(C)nn(-c2cc(Nc3c(OC)c(-c4ccc(C#N)cc4)nn3C)ncn2)c1C` [Example 446, ethyl 1-(6-{[3-(4-cyanophenyl)-4-methoxy-1-methyl-1H-pyrazol-5-yl]amino}pyrimidin-4-yl)-3,5-dimethyl-1H-pyrazole-4-carboxylate] registered an IC50 of 12 nM. This lies in the double-digit nanomolar range.

In turn, `CCOC(=O)c1cc(C)nn1-c1cc(Nc2nn(C)c(-c3ccc(F)cc3)c2Cl)ncn1` [Example 447, ethyl 1-(6-{[4-chloro-5-(4-fluorophenyl)-1-methyl-1H-pyrazol-3-yl]amino}pyrimidin-4-yl)-3-methyl-1H-pyrazole-5-carboxylate] came in with an IC50 of 560 nM.

The molecule `CCOC(=O)c1c(Cl)c(C)nn1-c1cc(Nc2c(Cl)c(-c3ccc(F)cc3)nn2C)ncn1` [Example 448, ethyl 4-chloro-1-(6-{[4-chloro-3-(4-fluorophenyl)-1-methyl-1H-pyrazol-5-yl]amino}pyrimidin-4-yl)-3-methyl-1H-pyrazole-5-carboxylate] showed an IC50 of 440 nM.

In the case of `CCOC(=O)c1c(C)nn(-c2cc(Nc3c(Cl)c(-c4ccc(F)cc4)nn3C)ncn2)c1C` [Example 449, ethyl 1-(6-{[4-chloro-3-(4-fluorophenyl)-1-methyl-1H-pyrazol-5-yl]amino}pyrimidin-4-yl)-3,5-dimethyl-1H-pyrazole-4-carboxylate], the IC50 amounted to 8 nM. This IC50 is about 55-fold lower than that of the molecule before.

`COc1c(-c2ccc(F)cc2)nn(CC2CC2)c1Nc1cc(-n2nc(C)c(-c3nnc(C)o3)c2C)ncn1` [Example 450, N-[1-(cyclopropylmethyl)-3-(4-fluorophenyl)-4-methoxy-1H-pyrazol-5-yl]-6-[3,5-dimethyl-4-(5-methyl-1,3,4-oxadiazol-2-yl)-1H-pyrazol-1-yl]pyrimidin-4-amine] had an IC50 of 660 nM.

Molecule `CC(=O)c1c(C)nn(-c2cc(Nc3c(C)nn(-c4ccc(C#N)cc4)c3C)ncn2)c1C` [Example 451, 4-(4-{[6-(4-acetyl-3,5-dimethyl-1H-pyrazol-1-yl)pyrimidin-4-yl]amino}-3,5-dimethyl-1H-pyrazol-1-yl)benzonitrile] gave an IC50 of 78 nM. This IC50 is about 8.5-fold lower than that of the molecule before.

For `Cc1nn(-c2cc(Nc3c(C)c(-c4ccc(F)cc4)nn3CC3CC3)ncn2)c(C)c1CN1CC(F)C1` [Example 452, N-[1-(cyclopropylmethyl)-3-(4-fluorophenyl)-4-methyl-1H-pyrazol-5-yl]-6-{4-[(3-fluoroazetidin-1-yl)methyl]-3,5-dimethyl-1H-pyrazol-1-yl}pyrimidin-4-amine], the IC50 came to 16 nM.

Turning to `CCOC(=O)c1c(C)nn(-c2cc(Nc3c(C)nn(-c4ccc(F)cc4)c3C)ncn2)c1C` [Example 453, ethyl 1-(6-{[1-(4-fluorophenyl)-3,5-dimethyl-1H-pyrazol-4-yl]amino}pyrimidin-4-yl)-3,5-dimethyl-1H-pyrazole-4-carboxylate], half-maximal inhibition (IC50) was put at 18 nM. This IC50 and that of the molecule before are within 1.5-fold of each other.

Turning to `CCOC(=O)c1c(C)nn(-c2cc(Nc3c(C)c(-c4ccc(C(F)F)cc4)nn3CC3CC3)ncn2)c1C` [Example 454, ethyl 1-[6-({1-(cyclopropylmethyl)-3-[4-(difluoromethyl)phenyl]-4-methyl-1H-pyrazol-5-yl}amino)pyrimidin-4-yl]-3,5-dimethyl-1H-pyrazole-4-carboxylate], inhibition was half-maximal at 11 nM (IC50). Compared with the last molecule, the IC50 is about 1.6-fold lower.

The molecule `Cc1ccc(-c2nn(CC3CC3)c(Nc3cc(-n4nc(C)c(C(F)(F)F)c4C)ncn3)c2C)cn1` [Example 455, N-[1-(cyclopropylmethyl)-4-methyl-3-(6-methylpyridin-3-yl)-1H-pyrazol-5-yl]-6-[3,5-dimethyl-4-(trifluoromethyl)-1H-pyrazol-1-yl]pyrimidin-4-amine] yielded an IC50 of 165 nM.

`Cc1nn(-c2cc(Nc3nn(C)c(-c4ccc(F)cc4)c3C)ncn2)c(C)c1C(O)CC(C)C` (centres unmarked) [Example 456, 1-[1-(6-{[5-(4-fluorophenyl)-1,4-dimethyl-1H-pyrazol-3-yl]amino}pyrimidin-4-yl)-3,5-dimethyl-1H-pyrazol-4-yl]-3-methylbutan-1-ol] returned an IC50 of 41 nM.

`Cc1cc(C)n(-c2cc(Nc3c(Cl)c(-c4ccccc4)nn3C)ncn2)n1` [Example 457, N-(4-chloro-1-methyl-3-phenyl-1H-pyrazol-5-yl)-6-(3,5-dimethyl-1H-pyrazol-1-yl)pyrimidin-4-amine]: inhibition was half-maximal at 130 nM (IC50).

As for `Cc1nn(-c2cc(Nc3c(C)c(-c4ccc(F)cn4)nn3CC3CC3)ncn2)c(C)c1C(C)(C)O` [Example 458, 2-[1-(6-{[1-(cyclopropylmethyl)-3-(5-fluoropyridin-2-yl)-4-methyl-1H-pyrazol-5-yl]amino}pyrimidin-4-yl)-3,5-dimethyl-1H-pyrazol-4-yl]propan-2-ol], the IC50 amounted to 1550 nM.

For the origin of these results see patent US11208400B2, “Substituted 6-(1H-pyrazol-1-yl)pyrimidin-4-amine derivatives and uses thereof” (Bayer Aktiengesellschaft, priority 2016, dated 2021).
